Measured values from US20120059034A1, “NOVEL CRYSTALLINE HYDRATE, AMORPHOUS AND POLYMORPHIC FORMS OF DIHYDRO-BENZOXAZOLE-6-YL-ACETAMIDE DERIVATIVE AND PROCESSES FOR THEIR PREPARATION” (priority 2009, published 2012).
Blank lines part the entries; values can stand above or below the molecule they belong to.

What was measured:
[1] = Solubility and dissolution rate of solid forms; format: physicochemical
Protocol: (§1) 1. Characteristic reflections of radiprodil monohydrate are the followings: 4.9, 15.1, 18.1, 26.8 and 30.2±0.2° 2θ 2. Characteristic IR absorption bands of radiprodil monohydrate are the followings: 3644, 1836, 1809, 1789, 1645 and 919±4 cm^−1. 3. Characteristic Raman absorption bands of radiprodil monohydrate are the followings: 2887, 1642, 1484, 1295 and 726±4 cm^−1. […] While the dihydrate Form can be dehydrated relatively easily at elevated temperature, the monohydrate Form is sufficiently stable under such conditions. […] This relative stability of the monohydrate Form compared to the dihydrate Form is advantageous in formulation technological steps involving elevated temperatures.
(§2) 1. There are no reflections on XRPD pattern of radiprodil amorphous form. 2. Characteristic IR absorption bands of radiprodil amorphous form are the followings: 3275, 1768, 1685, 1219 and 544±4 cm^−1. 3. Characteristic Raman absorption bands of radiprodil amorphous are the followings: 3071, 1687, 1640, 1414, 1280 and 852±4 cm^−1. […] One particular advantage of the discovered amorphous Form is that it is relatively stable.

[2] = Storage stability of the amorphous form against crystallization; format: physicochemical; conditions: normal laboratory conditions, several months
Text: as §2

[3] = Stress stability of the solid form (chemical impurities and physical form); format: physicochemical; conditions: stress conditions 25° C./75% RH; 50° C.; 50° C./oxygen; 50° C./75% RH; 50° C./90% RH; 75° C.; 75° C./oxygen, 10 days
Protocol: (§3) (IV) a DSC trace substantially in accordance with FIG. 5; • Characteristic diffraction and spectroscopic data of radiprodil anhydrate Form A are as follows: 1. Characteristic XRPD reflections of radiprodil anhydrate Form A are the following: 7.8, 22.0, 23.7, 27.0 and 27.6±0.2° 2 θ 2. Characteristic IR absorption bands of radiprodil anhydrate Form A are the following: 3295, 2863, 1852, 1768, 1058 and 635±4 cm^−1. 3. Characteristic Raman absorption bands of radiprodil anhydrate Form A are the following: 3106, 1680, 1641, 1470, 1274 and 507±4 cm^−1. […] All the other discovered solid forms can be converted to anhydrate Form A in suspension. This conversion takes place in absolute ethanol or in ethanol:water mixtures within a few hours. This relative stability advantage of anhydrous Form A of radiprodil can be favorably utilized in the development of active ingredient as well as dosage forms that are sufficiently stable both chemically and physically during extended shelf life. […] Due to its physical stability and non-hygroscopic character this polymorphic form is particularly advantageous in dosage formulation processes where the active ingredient is exposed to water during the process, such as wet granulation.

[4] = Relative thermodynamic stability, conversion of solid forms in suspension; format: physicochemical; conditions: room temperature
Protocol: as §3

[5] = Hygroscopicity, weight gain at elevated humidity; format: physicochemical; conditions: 50° C./90% RH, 10 days
Protocol: as §3

[6] = Pharmacokinetic profile in dogs (plasma concentrations by validated HPLC(UV) method); format: in vivo; conditions: 5 mg/kg dose adjusted to the anhydrous active substance, plasma samples up to 24 hours post dose
Protocol: Another essential value of the dihydrate Form is the observed better pharmacokinetic profile in dogs compared to the anhydrate Form A. Both forms in 5 mg/kg dose adjusted to the anhydrous active substance were administered to dogs and relevant pharmacokinetic parameters (AUC, Cmax) were calculated from the plasma profiles of the individual animals. The animals were […] seventeen hours before and six hours after drug administration. Plasma concentrations were measured in the trial samples taken up to 24 hours post dose by a validated HPLC(UV) method.

[7] = Thermal stability, loss of water of hydration at 50° C. in N2 atmosphere; format: physicochemical
Protocol: as §1

dissolution rate among the solid forms [1]: largest
solubility among the solid forms [1]: largest
crystallization on storage [2]: without crystallization
SMILES: O=C(Nc1ccc2[nH]c(=O)oc2c1)C(=O)N1CCC(Cc2ccc(F)cc2)CC1 [amorphous Form, 2-[4-(4-Fluorobenzyl)-piperidin-1-yl]-2-oxo-N-(2-oxo-2,3-dihydro-benzoxazol-6-yl)-acetamide amorphous form]

thermodynamic stability among the discovered forms [4]: thermodynamically most stable form
weight gain (hygroscopicity) [5]: did not show measurable weight gain
AUC24 [6]: 1554 ng·h/mL
Cmax [6]: 125 ng/mL
SMILES: O=C(Nc1ccc2[nH]c(=O)oc2c1)C(=O)N1CCC(Cc2ccc(F)cc2)CC1 [anhydrate Form A, 2-[4-(4-Fluorobenzyl)-piperidin-1-yl]-2-oxo-N-(2-oxo-2,3-dihydro-benzoxazol-6-yl)-acetamide anhydrate Form A]
change of sum of chemical impurities and of physical form compared to the starting material [3]: neither the sum of chemical impurities nor the physical form has changed

AUC24 ([6]; dihydrate): 4491 ng·h/mL
Cmax ([6]; dihydrate): 395 ng/mL
time to loss of water of hydration [7]: 2 h
SMILES: O=C(Nc1ccc2[nH]c(=O)oc2c1)C(=O)N1CCC(Cc2ccc(F)cc2)CC1 [dihydrate Form, 2-[4-(4-Fluorobenzyl)-piperidin-1-yl]-2-oxo-N-(2-oxo-2,3-dihydro-benzoxazol-6-yl)-acetamide dihydrate]

solubility compared to anhydrate Form A [1]: greater solubility
weight loss (water of hydration) ([7]; same conditions as dihydrate Form (2 hours)): does not show detectable weight loss
SMILES: O=C(Nc1ccc2[nH]c(=O)oc2c1)C(=O)N1CCC(Cc2ccc(F)cc2)CC1 [monohydrate Form, 2-[4-(4-Fluorobenzyl)-piperidin-1-yl]-2-oxo-N-(2-oxo-2,3-dihydro-benzoxazol-6-yl)-acetamide monohydrate]
